Data published in ChEMBL document CHEMBL3864162, “Discovery of potent inhibitors of the lysophospholipase autotaxin” (Bioorg Med Chem Lett, 2016).

How the values were obtained:
[1] = molecular target: T1, Autotaxin (Homo sapiens, UniProt Q13822); assay: Inhibition of human recombinant ATX using Rac-1-Palmitoyl-glycero-3-phosphocholine as substrate incubated for 2 hrs using ADHP fluorogenic peroxidase substrate by horseradish peroxidase/choline oxidase-coupled assay
[2] = molecular target: T1, Autotaxin; assay: Inhibition of ATX in human plasma assessed as decrease in hydrolysis of lysophosphatidylcholine by measuring choline release after 24 hrs by horseradish peroxidase/choline oxidase-coupled assay; assay type: cell-free
[3] = Intrinsic clearance in CD1 mouse liver microsomes assessed per gram of liver at 1 uM in presence of NADPH regenerating system measured up to 45 mins by UPLC/MS/MS analysis; assay type: ADME; details: 0.75 h
[4] = Intrinsic clearance in human liver microsomes assessed per gram of liver at 1 uM in presence of NADPH regenerating system measured up to 45 mins by UPLC/MS/MS analysis; assay type: ADME; details: 0.75 h
[5] = Half life in CD1 mouse blood at 1 mg/kg, iv administered as bolus dose measured up to 7 hrs by UPLC/MS/MS spectrometry analysis; assay type: ADME, organism-based
[6] = Blood clearance in CD1 mouse at 1 mg/kg, iv administered as bolus dose measured up to 7 hrs by UPLC/MS/MS spectrometry analysis; assay type: ADME, organism-based
[7] = Volume of distribution at steady state in CD1 mouse at 1 mg/kg, iv administered as bolus dose measured up to 7 hrs by UPLC/MS/MS spectrometry analysis; assay type: ADME, organism-based; details: in vivo, read-out: Vdss
[8] = Intrinsic clearance in rat liver microsomes assessed per gram of liver; assay type: ADME
[9] = Fraction unbound in mouse plasma; assay type: ADME, cell-free
[10] = Fraction unbound in rat plasma; assay type: ADME, cell-free
[11] = Blood clearance in Sprague-Dawley rat at 1 mg/kg, iv administered as bolus dose measured up to 20 hrs by UPLC/MS/MS spectrometry analysis; assay type: ADME, organism-based
[12] = Cmax in Balb-c nu/nu mouse at 10 mg/kg, po measured up to 7 hrs by UPLC/MS/MS spectrometry analysis; assay type: ADME, organism-based; set-up: dose 10 mg/kg, route oral; details: in vivo
[13] = Cmax in Balb-c nu/nu mouse at 30 mg/kg, po measured up to 7 hrs by UPLC/MS/MS spectrometry analysis; assay type: ADME, organism-based; set-up: dose 30 mg/kg, route oral; details: in vivo
[14] = Cmax in Balb-c nu/nu mouse at 100 mg/kg, po measured up to 7 hrs by UPLC/MS/MS spectrometry analysis; assay type: ADME, organism-based; set-up: dose 100 mg/kg, route oral; details: in vivo
[15] = AUC in Balb-c nu/nu mouse at 10 mg/kg, po measured up to 7 hrs by UPLC/MS/MS spectrometry analysis; assay type: ADME, organism-based; set-up: time < 7 hr, dose 10 mg/kg, route oral; details: in vivo
[16] = AUC in Balb-c nu/nu mouse at 30 mg/kg, po measured up to 7 hrs by UPLC/MS/MS spectrometry analysis; assay type: ADME, organism-based; set-up: time < 7 hr, dose 30 mg/kg, route oral; details: in vivo
[17] = AUC in Balb-c nu/nu mouse at 100 mg/kg, po measured up to 7 hrs by UPLC/MS/MS spectrometry analysis; assay type: ADME, organism-based; set-up: dose 100 mg/kg, time < 7 hr, route oral; details: in vivo
[18] = Half life in Balb-c nu/nu mouse blood at 10 mg/kg, po measured up to 7 hrs by UPLC/MS/MS spectrometry analysis; assay type: ADME, organism-based
[19] = Half life in Balb-c nu/nu mouse blood at 30 mg/kg, po measured up to 7 hrs by UPLC/MS/MS spectrometry analysis; assay type: ADME, organism-based
[20] = Half life in Balb-c nu/nu mouse blood at 100 mg/kg, po measured up to 7 hrs by UPLC/MS/MS spectrometry analysis; assay type: ADME, organism-based
[21] = Half life in Sprague-Dawley rat blood at 1 mg/kg, iv administered as bolus dose or 3 mg/kg, po administered via gastric gavage measured up to 20 hrs by UPLC/MS/MS spectrometry analysis; assay type: ADME, organism-based
[22] = test system: Mus musculus; assay: Toxicity in Balb-c nu/nu mouse at 100 mg/kg, po bid administered for 5 days; assay type: organism-based; details: in vivo, 120 h
[23] = test system: Mus musculus; assay: Reduction in plasma LPA C18:1 levels in Balb-c nu/nu mouse xenografted with human MDA-MB-231-luc cells at 30 to 100 mg/kg, po by UPLC/MS/MS analysis relative to control; assay type: functional
[24] = test system: Mus musculus; assay: Reduction in plasma LPA C20:4 levels in Balb-c nu/nu mouse xenografted with human MDA-MB-231-luc cells at 30 to 100 mg/kg, po by UPLC/MS/MS analysis relative to control; assay type: functional
[25] = test system: Mus musculus; assay: Reduction in plasma LPA C16:0 levels in Balb-c nu/nu mouse xenografted with human MDA-MB-231-luc cells at 30 to 100 mg/kg, po by UPLC/MS/MS analysis relative to control; assay type: functional
[26] = test system: Mus musculus; assay: Reduction in plasma LPA C18:2 levels in Balb-c nu/nu mouse xenografted with human MDA-MB-231-luc cells at 30 to 100 mg/kg, po by UPLC/MS/MS analysis relative to control; assay type: functional
[27] = molecular target: T1, Autotaxin; assay: Inhibition of ATX in human plasma assessed as decrease in LPA C18:1 levels after 24 hrs by horseradish peroxidase/choline oxidase-coupled assay
[28] = in vivo; details: Balb-c nu/nu, mouse, blood, po, 30 mg/kg
[29] = in vivo; details: Balb-c nu/nu, mouse, blood, po, 100 mg/kg
[30] = in vivo; details: Sprague-Dawley, rat, po, 3 mg/kg
[31] = species: Mus musculus; assay: animal or person; details: Balb-c, Plasma
Description: Reduction in plasma LPA C18:1 levels in po dosed Balb-c nu/nu mouse xenografted with human MDA-MB-231-luc cells by UPLC/MS/MS analysis

[32] = species: Mus musculus; assay: animal or person; details: Balb-c, Plasma; remark: listed apart in the source
Description: Reduction in plasma LPA C20:4 levels in po dosed Balb-c nu/nu mouse xenografted with human MDA-MB-231-luc cells by UPLC/MS/MS analysis

[33] = species: Mus musculus; assay: animal or person; details: Balb-c, Plasma; remark: listed apart in the source
Description: Reduction in plasma LPA C16:0 levels in po dosed Balb-c nu/nu mouse xenografted with human MDA-MB-231-luc cells by UPLC/MS/MS analysis

[34] = species: Mus musculus; assay: animal or person; details: Balb-c, Plasma; remark: listed apart in the source
Description: Reduction in plasma LPA C18:2 levels in po dosed Balb-c nu/nu mouse xenografted with human MDA-MB-231-luc cells by UPLC/MS/MS analysis

Question: For C[C@H](NC(=O)CCc1nc2cccnc2n1Cc1ccc(OC(F)(F)F)cc1)c1ccc(Cl)cc1 [CAMBRITAXESTAT], which IC50 [1] is on record?
Answer: Its IC50 is 1 nM.

Question: What about the IC50 [2] of the same molecule?
Answer: The IC50 was 14 to 24 nM.

Question: And the CLH [3]?
Answer: Its CLH is 44.1 mL/min/g.

Question: And the CLH [4]?
Answer: Its CLH is 9.4 mL/min/g.

Question: And the half-life [5]?
Answer: Its half-life is 1 h.

Question: And the clearance [6]?
Answer: Its clearance is 41 mL/min/kg.

Question: And the Vd [7]?
Answer: Its Vd is 1.3 L/kg.

Question: What about the CLH [8] of the same molecule?
Answer: The CLH was 15 mL/min/g.

Question: And the fraction unbound [9]?
Answer: Its fraction unbound is 0.018.

Question: And the fraction unbound [10]?
Answer: The fraction unbound was 0.02.

Question: What about the clearance [11] of the same molecule?
Answer: The clearance was 19 mL/min/kg.

Question: And the Cmax [12]?
Answer: Its Cmax is 3.8 µM.

Question: What about the Cmax [13] of the same molecule?
Answer: Its Cmax is 10.9 µM.

Question: What about the Cmax [14] of the same molecule?
Answer: The Cmax was 18.1 µM.

Question: What about the AUC at 7 h [15] of the same molecule?
Answer: Its AUC at 7 h is 3.2 µM·h.

Question: What about the AUC at 7 h [16] of the same molecule?
Answer: The AUC at 7 h was 15.2 µM·h.

Question: What about the AUC at 7 h [17] of the same molecule?
Answer: Its AUC at 7 h is 59.3 µM·h.

Question: What about the half-life [18] of the same molecule?
Answer: Its half-life is 1.4 h.

Question: And the half-life [19]?
Answer: The half-life was 0.9 h.

Question: What about the half-life [20] of the same molecule?
Answer: Its half-life is 1.3 h.

Question: And the half-life [21]?
Answer: The half-life was 5.4 h.

Question: What about the Activity [22] of the same molecule?
Answer: The Activity was “Non-Toxic”.

Question: What about the “%max” value [23] of the same molecule?
Answer: Its value is 89 - 93%.

Question: What about the “%max” value [24] of the same molecule?
Answer: Its value is 89 - 93%.

Question: And the “%max” value [25]?
Answer: Its value is 89 - 93%.

Question: What about the “%max” value [26] of the same molecule?
Answer: Its value is 89 - 93%.

Question: What about the IC50 [27] of the same molecule?
Answer: The IC50 was 38 nM.

Question: What about the bioavailability at 7 h [28] of the same molecule?
Answer: The bioavailability at 7 h was 64%.

Question: What about the bioavailability at 7 h [29] of the same molecule?
Answer: Its bioavailability at 7 h is 75%.

Question: And the bioavailability at 20 h [30]?
Answer: Its bioavailability at 20 h is 28%.

Question: And the EC50 [31]?
Answer: Its EC50 is 13 nM.

Question: And the EC50 [32]?
Answer: The EC50 was 46 nM.

Question: And the EC50 [33]?
Answer: Its EC50 is 8 nM.

Question: What about the EC50 [34] of the same molecule?
Answer: Its EC50 is 30 nM.
